Assay results as given in PubChem BioAssay AID816 (SRMLSC, 2007).
Active and inactive are the calls of the source. How the calls were made is not given here.

System: S. cerevisiae GAL1 promoter reporter activation counterscreen
Assay: GAL1 promoter activators in yeast, artefact control for yeast lifespan extension project, S. cerevisiae (AID 816);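 further: yeast growth read after 24 h of incubation with compounds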

| Compound | EC50 |
| --- | --- |
| c1ccc(-c2cc(N3CCOCC3)nc3ccccc23)cc1 | > 40 µM (inactive) |
| CCCCn1c(/N=C/c2ccccc2NS(=O)(=O)c2ccc(C)cc2)nc2ccccc21 | > 40 µM (inactive) |
| C=CCn1c(O)c(C(CC)=NCCN2CCOCC2)c(=O)[nH]c1=O | > 40 µM (inactive) |
| CCc1ccc(C(=O)CN2C(=O)NC(C)(CCc3ccccc3)C2=O)cc1 (stereo unspecified) | > 40 µM (inactive) |
| CC1C/C(=C\c2cccnc2)C(=O)/C(=C/c2cccnc2)C1 (stereo unspecified) | > 40 µM (inactive) |
| CCCCC1C(=O)CC[C@H]2[C@@H]1CC(=O)[C@@H]2C/C=C\CCCC(=O)O (stereo partly specified) | > 40 µM (inactive) |
| O=C1c2ccccc2C(Nc2ccc3c(c2)OCCO3)N1c1ccccn1 (stereo unspecified) | > 40 µM (inactive) |
| CCCCC(c1nnnn1CC1CCCO1)N1CCN(c2nc3ccccc3s2)CC1 (stereo unspecified) | > 40 µM (inactive) |
| Cc1ccc2nc(-c3ccc(NC(=O)CSc4ccccc4)cc3)[nH]c2c1 | > 40 µM (inactive) |
| O=C1C=CC2C(c3ccc4c(c3)OCO4)CC1N2Cc1ccccc1 (stereo unspecified) | > 40 µM (inactive) |
| Oc1ccc2ccccc2c1/C=N/c1nccs1 | > 40 µM (inactive) |
| Cc1cc(N2C(=O)CC(Cc3ccccc3)C2=O)no1 (stereo unspecified) | > 40 µM (inactive) |
| O=C(Nc1nc2ccccc2n1CCN1CCOCC1)c1cn(-c2ccccc2)nc1-c1ccccc1 | > 40 µM (inactive) |
| COc1cccc(/C=C/C(=O)c2c(O)cc(C)oc2=O)c1O | > 40 µM (inactive) |
| O=C1c2ccccc2C(=O)N1c1ncc(Cc2ccc(Cl)cc2)s1 | > 40 µM (inactive) |
| CCOc1ccc2nc(NCCNC(=O)Nc3ccccc3)c(C#N)cc2c1 | > 40 µM (inactive) |
| O=C(NNC1=Nc2cccc3cccc1c23)c1ccccc1Br | > 40 µM (inactive) |
| Cc1cc(C)n(-c2ccc(OCC(=O)O)nn2)n1 | > 40 µM (inactive) |
| CCOC(=O)C1C(=O)C(C(C)=O)C(=O)CC1CC(C)SCC (stereo unspecified) | > 40 µM (inactive) |
| CC(C)(C)OC(=O)[C@H]1[C@H](c2ccc([N+](=O)[O-])cc2)C2(C(=O)c3ccccc3C2=O)C2c3ccccc3C=NN21 (stereo partly specified) | > 40 µM (inactive) |
| CC(=O)Oc1ccc(N(C(C)=O)S(=O)(=O)c2ccc(C)c([N+](=O)[O-])c2)cc1 | > 40 µM (inactive) |
| CCC1CCCCN1S(=O)(=O)c1ccc(S(=O)(=O)N(Cc2cccs2)C2CC2)cc1 (stereo unspecified) | > 40 µM (inactive) |
| CSC1=NSC2=NC(=O)/C(=C\c3cccs3)C(=N)N12 | > 40 µM (inactive) |
| CC(=O)Nc1ccc(C(=O)CSc2nnc(-c3ccc(O)cc3)n2CC2CCCO2)cc1 (stereo unspecified) | > 40 µM (inactive) |

| Compound | EC50 |
| --- | --- |
| CCOC(=O)CSC1=NC(=O)/C(=C/c2ccc(OC)cc2)S1 | > 40 µM (inactive) |
| CC1Cc2ccccc2N1C(=O)Cn1cnc2ccccc2c1=O (stereo unspecified) | > 40 µM (inactive) |
| CCOC(=O)COc1ccccc1/C=C\[N+](=O)[O-] | > 40 µM (inactive) |
| O=C(/C(=C/O)N=Nc1ccc(Cl)cc1)c1ccncc1 | > 40 µM (inactive) |
| COc1ccc(NC(=S)N2CCN(CCN=CC3=C(O)CC(c4ccccc4)CC3=O)CC2)cc1 (stereo unspecified) | > 40 µM (inactive) |
| CC(C)n1c(-c2ccccc2F)n[nH]c1=S | > 40 µM (inactive) |
| CC(C)c1nnc(NC(=O)c2c(O)c3cccc4c3n(c2=O)CCC4)s1 | > 40 µM (inactive) |
| O=C1CC(c2ccccc2)CC(O)=C1C=NCCN1CCN(C(=O)Nc2ccccc2)CC1 (stereo unspecified) | > 40 µM (inactive) |
| CC1(C)Cc2ccccc2-c2nnc(SCC(=O)Nc3ccc4c(c3)OCO4)n21 | > 40 µM (inactive) |
| CN(C)C1(c2nnnn2CCOC(=O)Nc2ccc(Cl)cc2)CCCCC1 | > 40 µM (inactive) |
| O=c1cc(-c2c(F)c(F)c(F)c(F)c2F)oc2c(F)c(F)c(F)c(F)c12 | > 40 µM (inactive) |
| CC1=CS(=O)(=O)CC1Sc1nc2ccccc2[nH]1 (stereo unspecified) | > 40 µM (inactive) |
| O=C(COc1ccc2ccccc2c1)Nc1cccc(C(=O)Nc2ccccc2C(=O)O)c1 | > 40 µM (inactive) |
| Cc1cc2c(c(=O)n1CCc1ccccc1)C(c1ccco1)C(C#N)=C(N)O2 (stereo unspecified) | > 40 µM (inactive) |
| CCOc1ccc(OCC(=O)c2c(O)c3ccccc3oc2=O)cc1 | > 40 µM (inactive) |
| Cc1ccc(S(=O)(=O)N[C@@H](Cc2ccccc2)C(=O)CCl)cc1 | > 40 µM (inactive) |
| O=C(/C=C/c1ccccc1)C1C(=O)c2ccccc2C1=O | > 40 µM (inactive) |
| C=CCn1c(C)cc(C(=O)COc2ncnc3sccc23)c1C | > 40 µM (inactive) |
| Cc1ccnc(-n2c(C)cc(/C=C3\C(=O)NC(=S)N(C)C3=O)c2C)c1 | > 40 µM (inactive) |
| COc1ccc(CNC(=O)c2c(O)c3cccc4c3n(c2=O)CCC4)cc1 | > 40 µM (inactive) |
| CC(=O)Oc1c(C(=O)c2nnc(C)o2)c(=O)n(C)c2ccccc12 | > 40 µM (inactive) |
| COc1ccc(NC(=O)/C(Cl)=C(/Cl)S(=O)Cc2ccc(C)cc2)cn1 (stereo unspecified) | > 40 µM (inactive) |
| COC(=O)c1cc(=O)n(-c2ccccc2)c(=Nc2ccccc2)s1 | > 40 µM (inactive) |
| CCc1nnc(N2C(=O)c3ccc(Oc4ccc([N+](=O)[O-])cc4)cc3C2=O)s1 | > 40 µM (inactive) |

| Compound | EC50 |
| --- | --- |
| CN1C/C(=C/c2cccnc2)C(=O)/C(=C/c2cccnc2)C1 | > 40 µM (inactive) |
| COc1cnc(-c2ccccn2)nc1Sc1cccc(Cl)c1 | > 40 µM (inactive) |
| CCCCCCCC(=O)N/N=C(/C)c1c(O)cc(C)oc1=O | > 40 µM (inactive) |
| COc1ccc(-c2cc(N)n(S(=O)(=O)c3c(F)c(F)c(F)c(F)c3F)n2)cc1OC | > 40 µM (inactive) |
| Cc1nn(C(C)(C)C)c(OC(=O)c2ccc(Br)o2)c1Sc1ccccc1 | > 40 µM (inactive) |
| COc1ccc(NCc2nc3ccccc3n2CCOc2ccccc2)cc1 | > 40 µM (inactive) |
| CCCCCC1CC1C(=O)N/N=C/c1ccc(N(C)C)cc1 (stereo unspecified) | > 40 µM (inactive) |
| O=[N+]([O-])c1cc2oc3c(c2c(C=NCc2ccncc2)c1O)CCCC3 | > 40 µM (inactive) |
| C=C(C(=O)c1ccccc1)C(C)CC(=O)c1ccccc1 (stereo unspecified) | > 40 µM (inactive) |
| CCC1C/C(=C\c2cccnc2)C(=O)/C(=C/c2cccnc2)C1 (stereo unspecified) | > 40 µM (inactive) |
| CCOc1ccc(C(=O)C(CN2CCOCC2)c2ccccc2)cc1 (stereo unspecified) | > 40 µM (inactive) |
| COc1ccc(/C=C(/C(=O)c2ccc(Cl)cc2Cl)n2cncn2)cc1 | > 40 µM (inactive) |
| CN1C(=O)/C(=C/c2cccn2-c2ccc3ccccc3c2)C(=O)NC1=S | > 40 µM (inactive) |
| CCN1C(=O)C(=Cc2ccc(C)s2)C(=O)N(CC)C1=S | > 40 µM (inactive) |
| CCCCCCN1CC(C(=O)OCC)C(=O)C1=O (stereo unspecified) | > 40 µM (inactive) |
| C/C(=N\NC(=O)c1cccnc1)c1c(O)cc(C)oc1=O | > 40 µM (inactive) |
| CC(=O)Oc1oc(-c2ccccc2)nc1C=Nc1ccccc1 | > 40 µM (inactive) |
| O=C(O)c1cccc2c1C(=O)N(C1CCCCC1)C2 | > 40 µM (inactive) |
| O=C(N/N=C/c1ccc(F)cc1)c1c(O)c2ccccc2[nH]c1=O | > 40 µM (inactive) |
| CCSc1ccccc1C(=O)n1nnc2ccccc21 | > 40 µM (inactive) |
| CC(C)(C)C(=O)/C(=C/c1cccc([N+](=O)[O-])c1)n1cncn1 | > 40 µM (inactive) |
| N#C/C(=C\c1ccccc1)C(=O)N(c1ccccn1)C1CCCCC1 | > 40 µM (inactive) |
| ClC(Cl)(c1nnnn1-c1ccccc1)c1nnnn1-c1ccccc1 | > 40 µM (inactive) |
